Data as given in patent publication US10882871B2, “18/19F-labelled compounds which target the prostate specific membrane antigen” (BRITISH COLUMBIA CANCER AGENCY BRANCH, priority 2016, dated 2021).

What was measured:
[1] = tested on: PSMA-expressing prostate cancer; details: clinical trials, PSMA-expressing prostate cancer patients; cited from earlier work
[2] = tested on: PSMA-expressing LNCAP cancer xenografts; assay: Biodistribution and tumor-to-background contrast ratios of 18F-labeled tracers; assay type: in vivo, mouse (NODSCID 1L2RγKO male mice)
Method: LNCap cell line was obtained from ATCC (LNCaP clone FGC, CRL-1740). It was established from a metastatic site of left supraclavicular lymph node of human prostatic adenocarcinoma. Cells were cultured in PRMI 1640 medium supplemented with 10% FBS, penicillin (100 U/mL) and streptomycin (100 μg/mL) at 37° C. in a humidified incubator containing 5% CO2. Cells grown to 80-90% confluence were then washed with sterile phosphate-buffered saline (1×PBS pH 7.4) and trypsinization. The collected cells number was counted with a Hausser Scientific (Horsham, Pa.) Hemacytometer.
Imaging and biodistribution experiments were performed using NODSCID 1L2RγKO male mice. Mice were anesthetized by inhalation with 2% isoflurane in oxygen, and implanted subcutaneously with 1×10^7 LNCaP cells behind left shoulder. Mice were imaged or used in biodistribution studies when the tumor grew up to reach 5-8 mm in diameter during 5-6 weeks.
PET imaging experiments were conducted using Siemens Inveon micro PET/CT scanner. Each tumor bearing mouse was injected 6-8 MBq of F-18 labeled tracer through the tail vein under anesthesia (2% isoflurane in oxygen). The mice were allowed to recover and roam freely in their cage. After 50 min, the mice were sedated again with 2% isoflurane in oxygen inhalation and positioned in the scanner. A 10-min CT scan was conducted first for localization and attenuation correction after segmentation for reconstructing the PET images. Then, a 10-min static PET imaging was performed to determined uptake in tumor and other organs. The mice were kept warm by a heating pad during acquisition. For imaging studies acquired at 2 h post-injection (p.i.), the mice were placed in the micro PET/CT scanner at 110 min p.i. Then, the CT and PET acquisitions were conducted as described above.
For biodistribution studies, the mice were injected with the radiotracer as described above. At predetermined time points (1 or 2 h), the mice was anesthetized with 2% isoflurane inhalation, and euthanized by CO2 inhalation. Blood was withdrawn immediately from the heart, and the organs/tissues of interest were collected. The collected organs/tissues were weighed and counted using an automatic gamma counter. The uptake in each organ/tissue was normalized to the injected dose using a standard curve, and expressed as the percentage of the injected dose per gram of tissue (% ID/g).

O=C([O-])CN1CCN(CC(=O)[O-])CCN(CC(=O)NCC2CCC(C(=O)N[C@@H](Cc3ccc4ccccc4c3)C(=O)NCCCC[C@H](NC(=O)N[C@@H](CCC(=O)O)C(=O)O)C(=O)O)CC2)CCN(CC(=O)[O-])CC1.[177Lu+3] (stereo partly shown) [PSMA-617 radiolabeled with Lu-177]
positive response [1]: > 50%

C[N+](C)(Cc1cn(CC(=O)NCCOCCOCCC(=O)N[C@@H](Cc2ccc3ccccc3c2)C(=O)NCCCC[C@H](NC(=O)N[C@@H](CCC(=O)O)C(=O)O)C(=O)O)nn1)C[B-](F)(F)[18F] [^18F-HTK01146]
Biodistribution Adrenal glands ([2]; 1 h): 0.81 ± 0.25 % ID/g
Biodistribution Blood ([2]; 1 h): 0.13 ± 0.08 % ID/g
Biodistribution Bone ([2]; 1 h): 0.10 ± 0.07 % ID/g
Biodistribution Brain ([2]; 1 h): 0.01 ± 0.01 % ID/g
Biodistribution Fat ([2]; 1 h): 0.27 ± 0.14 % ID/g
Biodistribution Heart ([2]; 1 h): 0.07 ± 0.02 % ID/g
Biodistribution Intestine ([2]; 1 h): 22.2 ± 2.79 % ID/g
Biodistribution Kidneys ([2]; 1 h): 29.9 ± 25.0 % ID/g
Biodistribution Liver ([2]; 1 h): 0.83 ± 0.34 % ID/g
Biodistribution Lungs ([2]; 1 h): 0.40 ± 0.13 % ID/g
Biodistribution Muscle ([2]; 1 h): 0.05 ± 0.01 % ID/g
Biodistribution Pancreas ([2]; 1 h): 0.13 ± 0.11 % ID/g
Biodistribution Spleen ([2]; 1 h): 0.75 ± 0.36 % ID/g
Biodistribution Stomach ([2]; 1 h): 0.21 ± 0.12 % ID/g
Biodistribution Testes ([2]; 1 h): 0.18 ± 0.05 % ID/g
Biodistribution Tumor ([2]; 1 h): 5.09 ± 1.10 % ID/g
Tumor:Blood contrast ratio ([2]; 1 h): 54.6 ± 38.5
Tumor:Muscle contrast ratio ([2]; 1 h): 117 ± 52.1
Tumor:kidney contrast ratio ([2]; 1 h): 0.28 ± 0.22

O=C(O)CC[C@H](NC(=O)N[C@@H](CCCCNC(=O)[C@H](Cc1ccc2ccccc2c1)NC(=O)[C@H]1CC[C@H](CNC(=O)Cn2cc(C[n+]3ccc([B-](F)(F)[18F])cc3)nn2)CC1)C(=O)O)C(=O)O [^18F-PSMA-617-PyrBF3]
Biodistribution Adrenal glands ([2]; 1 h): 2.02 ± 0.56 % ID/g
Biodistribution Blood ([2]; 1 h): 1.45 ± 1.15 % ID/g
Biodistribution Bone ([2]; 1 h): 0.54 ± 0.14 % ID/g
Biodistribution Brain ([2]; 1 h): 0.03 ± 0.00 % ID/g
Biodistribution Fat ([2]; 1 h): 0.42 ± 0.30 % ID/g
Biodistribution Heart ([2]; 1 h): 0.25 ± 0.06 % ID/g
Biodistribution Intestine ([2]; 1 h): 20.8 ± 4.79 % ID/g
Biodistribution Kidneys ([2]; 1 h): 83.5 ± 35.7 % ID/g
Biodistribution Liver ([2]; 1 h): 1.10 ± 0.28 % ID/g
Biodistribution Lungs ([2]; 1 h): 1.06 ± 0.23 % ID/g
Biodistribution Muscle ([2]; 1 h): 0.18 ± 0.03 % ID/g
Biodistribution Pancreas ([2]; 1 h): 0.26 ± 0.08 % ID/g
Biodistribution Spleen ([2]; 1 h): 2.84 ± 1.51 % ID/g
Biodistribution Stomach ([2]; 1 h): 0.98 ± 0.12 % ID/g
Biodistribution Testes ([2]; 1 h): 0.39 ± 0.13 % ID/g
Biodistribution Tumor ([2]; 1 h): 23.1 ± 8.26 % ID/g
Tumor:Blood contrast ratio ([2]; 1 h): 35.4 ± 27.6
Tumor:Muscle contrast ratio ([2]; 1 h): 145 ± 57.0
Tumor:kidney contrast ratio ([2]; 1 h): 0.32 ± 0.11

C[N+](C)(Cc1cn(CC(=O)NC[C@H]2CC[C@H](C(=O)N[C@@H](Cc3ccc4ccccc4c3)C(=O)NCCCC[C@H](NC(=O)N[C@@H](CCC(=O)O)C(=O)O)C(=O)O)CC2)nn1)C[B-](F)(F)[18F] [^18F-HTK01157]
Biodistribution Adrenal glands ([2]; 1 h): 2.89 ± 1.94 % ID/g
Biodistribution Blood ([2]; 1 h): 0.89 ± 0.42 % ID/g
Biodistribution Bone ([2]; 1 h): 0.34 ± 0.14 % ID/g
Biodistribution Brain ([2]; 1 h): 0.04 ± 0.01 % ID/g
Biodistribution Fat ([2]; 1 h): 0.83 ± 0.33 % ID/g
Biodistribution Heart ([2]; 1 h): 0.31 ± 0.11 % ID/g
Biodistribution Intestine ([2]; 1 h): 13.0 ± 4.61 % ID/g
Biodistribution Kidneys ([2]; 1 h): 73.9 ± 35.2 % ID/g
Biodistribution Liver ([2]; 1 h): 1.14 ± 0.48 % ID/g
Biodistribution Lungs ([2]; 1 h): 1.21 ± 0.48 % ID/g
Biodistribution Muscle ([2]; 1 h): 0.36 ± 0.18 % ID/g
Biodistribution Pancreas ([2]; 1 h): 0.30 ± 0.17 % ID/g
Biodistribution Spleen ([2]; 1 h): 2.67 ± 0.98 % ID/g
Biodistribution Stomach ([2]; 1 h): 0.37 ± 0.45 % ID/g
Biodistribution Testes ([2]; 1 h): 0.74 ± 0.55 % ID/g
Biodistribution Tumor ([2]; 1 h): 14.0 ± 5.20 % ID/g
Tumor:Blood contrast ratio ([2]; 1 h): 17.1 ± 5.40
Tumor:Muscle contrast ratio ([2]; 1 h): 49.7 ± 28.5
Tumor:kidney contrast ratio ([2]; 1 h): 0.21 ± 0.08

O=C(O)CC[C@H](NC(=O)N[C@@H](CCCCNC(=O)c1ccc(Cn2cc(C[n+]3ccc([B-](F)(F)[18F])cc3)nn2)nc1)C(=O)O)C(=O)O [^18F-PSMA PyrBF3]
Biodistribution Adrenal glands ([2]; 1 h): 6.66 ± 2.33 % ID/g
Biodistribution Blood ([2]; 1 h): 0.74 ± 0.15 % ID/g
Biodistribution Bone ([2]; 1 h): 0.76 ± 0.57 % ID/g
Biodistribution Brain ([2]; 1 h): 0.05 ± 0.01 % ID/g
Biodistribution Fat ([2]; 1 h): 1.05 ± 0.49 % ID/g
Biodistribution Heart ([2]; 1 h): 0.34 ± 0.08 % ID/g
Biodistribution Intestine ([2]; 1 h): 0.48 ± 0.22 % ID/g
Biodistribution Kidneys ([2]; 1 h): 164 ± 50.2 % ID/g
Biodistribution Liver ([2]; 1 h): 1.28 ± 0.18 % ID/g
Biodistribution Lungs ([2]; 1 h): 1.67 ± 0.47 % ID/g
Biodistribution Muscle ([2]; 1 h): 0.28 ± 0.07 % ID/g
Biodistribution Pancreas ([2]; 1 h): 0.68 ± 0.50 % ID/g
Biodistribution Spleen ([2]; 1 h): 3.36 ± 1.08 % ID/g
Biodistribution Stomach ([2]; 1 h): 0.15 ± 0.03 % ID/g
Biodistribution Testes ([2]; 1 h): 0.67 ± 0.27 % ID/g
Biodistribution Tumor ([2]; 1 h): 6.26 ± 0.82 % ID/g
Tumor:Blood contrast ratio ([2]; 1 h): 8.67 ± 1.74
Tumor:Muscle contrast ratio ([2]; 1 h): 23.5 ± 5.00
Tumor:kidney contrast ratio ([2]; 1 h): 0.04 ± 0.02

C[N+](C)(Cc1cn(Cc2ccc(C(=O)NCCCC[C@H](NC(=O)N[C@@H](CCC(=O)O)C(=O)O)C(=O)O)cn2)nn1)C[B-](F)(F)[18F] [^18F-HTK01130]
Biodistribution Adrenal glands ([2]; 1 h): 1.46 ± 0.56 % ID/g
Biodistribution Blood ([2]; 1 h): 0.58 ± 0.09 % ID/g
Biodistribution Bone ([2]; 1 h): 0.22 ± 0.05 % ID/g
Biodistribution Brain ([2]; 1 h): 0.04 ± 0.01 % ID/g
Biodistribution Fat ([2]; 1 h): 0.39 ± 0.14 % ID/g
Biodistribution Heart ([2]; 1 h): 0.21 ± 0.05 % ID/g
Biodistribution Intestine ([2]; 1 h): 0.31 ± 0.01 % ID/g
Biodistribution Kidneys ([2]; 1 h): 63.3 ± 13.5 % ID/g
Biodistribution Liver ([2]; 1 h): 1.26 ± 0.27 % ID/g
Biodistribution Lungs ([2]; 1 h): 0.75 ± 0.10 % ID/g
Biodistribution Muscle ([2]; 1 h): 0.20 ± 0.07 % ID/g
Biodistribution Pancreas ([2]; 1 h): 0.31 ± 0.11 % ID/g
Biodistribution Spleen ([2]; 1 h): 0.95 ± 0.56 % ID/g
Biodistribution Stomach ([2]; 1 h): 0.09 ± 0.03 % ID/g
Biodistribution Testes ([2]; 1 h): 0.30 ± 0.05 % ID/g
Biodistribution Tumor ([2]; 1 h): 4.44 ± 1.11 % ID/g
Tumor:Blood contrast ratio ([2]; 1 h): 7.60 ± 1.33
Tumor:Muscle contrast ratio ([2]; 1 h): 24.1 ± 8.79
Tumor:kidney contrast ratio ([2]; 1 h): 0.07 ± 0.02
Biodistribution Adrenal glands ([2]; 2 h): 1.08 ± 0.51 % ID/g
Biodistribution Blood ([2]; 2 h): 0.21 ± 0.10 % ID/g
Biodistribution Bone ([2]; 2 h): 0.20 ± 0.09 % ID/g
Biodistribution Brain ([2]; 2 h): 0.03 ± 0.01 % ID/g
Biodistribution Fat ([2]; 2 h): 0.32 ± 0.30 % ID/g
Biodistribution Heart ([2]; 2 h): 0.10 ± 0.04 % ID/g
Biodistribution Intestine ([2]; 2 h): 0.24 ± 0.11 % ID/g
Biodistribution Kidneys ([2]; 2 h): 48.2 ± 24.6 % ID/g
Biodistribution Liver ([2]; 2 h): 1.20 ± 0.30 % ID/g
Biodistribution Lungs ([2]; 2 h): 0.30 ± 0.10 % ID/g
Biodistribution Muscle ([2]; 2 h): 0.08 ± 0.03 % ID/g
Biodistribution Pancreas ([2]; 2 h): 0.20 ± 0.18 % ID/g
Biodistribution Spleen ([2]; 2 h): 0.39 ± 0.35 % ID/g
Biodistribution Stomach ([2]; 2 h): 0.05 ± 0.03 % ID/g
Biodistribution Testes ([2]; 2 h): 0.16 ± 0.10 % ID/g
Biodistribution Tumor ([2]; 2 h): 4.27 ± 0.65 % ID/g
Tumor:Blood contrast ratio ([2]; 2 h): 7.60 ± 1.33
Tumor:Muscle contrast ratio ([2]; 2 h): 24.1 ± 8.79
Tumor:kidney contrast ratio ([2]; 2 h): 0.07 ± 0.02
